Reference: article PMC12406255, “Engineering Peptide Modulators for T‑Cell Migration by Structural Scaffold Matching” (Journal of Medicinal Chemistry, 2025)
Where two headings read alike, the source gives them in different places. Positions of bridges follow the written chain, without caps; N, C: chain ends. Non-standard residues stand in square brackets, D forms with d. Residues, ends and D or L forms follow the SMILES beside them. No end group written: not given here. Nle = CCCC[C@H](N)C(=O)O

What was measured:
Serum stability assay = format: in vitro ADME; settings: human serum of healthy donors, lipids removed by centrifugation, 37 °C, peptide 30-60 μM from 10-fold stock in PBS, followed over 48 h, urea/TFA quench, analytical RP-HPLC peak area vs time 0, one-phase decay fit, mean ± SD, n = 2 (pepitem n = 5); for half-life: read-out: Serum t 1/2 (converted)
Description: Stability of peptides in human serum was measured similarly to that previously described. In short, fresh blood from healthy donors was collected in serum collection tubes (Clot Activator Tube, Becton Dickinson, Plymouth, United Kingdom, […]) and incubated at 4 °C for 2 h to allow blood clotting. The serum was separated by centrifugation at 1000 × g for 10 min. To remove lipids from the serum, an additional centrifugation step was performed at 15,000 × g for 15 min at 4 °C, after which the serum was used for the stability assays. For this, the serum was prewarmed for 10 min at 37 °C before the addition of the test compounds. Peptides were prepared at a 10-fold concentration in PBS and diluted to a final concentration between 60 and 30 μM with the serum. The serum-peptide reaction mix was incubated at 37 °C, and 40 μL aliquots were taken at the indicated time points. To stop the reaction, samples were mixed with 40 μL of 6 M urea for 10 min on ice, followed by precipitation of serum proteins by the addition of 40 μL of 20% TFA and incubation for at least 10 min on ice. The precipitate was pelleted at 15,000 × g for 15 min, and 90 μL of the supernatant was freeze-dried. The dry material was resuspended in HPLC solvent A (0.1% TFA in ddH2O). Peptide quantification was performed using analytical HPLC. The remaining peptide relative to the starting point (time point 0) was calculated by peak integration to determine the area under the peak at the designated time points and further calculated in comparison to time point 0 min, which was set as 100%. To calculate the half-life of the peptides in human serum, data points were fitted with a one-phase decay equation.

CD3+ lymphocytes = assay: cells; format: cell-based, human; settings: for % Inhibition of cell migration compared to control, CD3+: normalized to untreated control, mean ± SEM of 4-6 experiments
Description: 1 Transwell-based migration assay to study lymphocyte transendothelial migration. (A) The general principle of the transwell migration assay is depicted. Endothelial cells (EC) are seeded in transwell inserts and are incubated for 2 days to form an EC monolayer. On the day before the assay, the ECs are cytokine-stimulated to induce the expression of adhesion molecules. In the migration assay, human peripheral blood mononuclear cells (PBMC) are placed into the donor compartment of the transwell setup. After 4 h of incubation time, the migrated cells are harvested from the receiver compartment, stained with fluorescent antibodies and counted using flow cytometry. (B) PBMCs were preincubated with S1P for 1.5 h and then transferred into the donor compartment on top of the EC monolayer. […] Data are shown as mean ± SD of 3 to 5 independent experiments.
(§1) Transwell migration assays were performed similarly as published previously. HMEC-1 cells were seeded at a density of 75,000 cells per well in transwell inserts. Three days after cell seeding, the medium was changed, and the cells were stimulated with 100 ng/mL TNF-α and 20 ng/mL IFN-γ for 16–18 h. On the day of the assay, cells were washed with migration medium (serum-free RPMI medium supplemented with 0.1% BSA) to remove residual cytokines and starved for at least 1 h at 37 °C in migration medium. PBMC were starved for at least 1.5 h in migration medium before addition to the EC. For S1P and lifitegrast-treated samples, the PBMC were preincubated for at least 1.5 h at 37 °C with the ligands before addition to the EC. Pepitem and other peptides were added onto the EC monolayer and preincubated for 15–30 min at 37 °C before the addition of the PBMC. 200,000 PBMC per well were added directly on top of the EC prestimulated with pepitem or other peptides to reach a final volume of 150 μL in the donor compartments. The receiver compartments of the wells were filled with 600 μL RPMI with 20% FBS. After 4 h of migration at 37 °C, the receiver compartment with the migrated cells was collected. The migrated cells were stained with the indicated antibodies: CD3-APC (clone: OKT3, lot: B400127), CD4-PE (clone: OKT4. lot: B379180), CD8-FITC (clone: HIT8a, lot: B370193) from Biolegend and CD3-VioGreen (clone: REA613, lot: 5240502518), CD45RO-FITC (clone: REA611, lot: 5240502519), CD4-PerCP-Vio700 (clone: REA623, lot: 5240506702), CXCR3 PE-Vio615 (clone: REA232, lot: 5240506722), CD196-APC (clone: REA190, lot: 5240506717), CD8-APC-Vio770 (clone: REA734, lot: 5240303993) and CD45RO-PEVio616 (clone: REA611, lot: 5231102514) from Miltenyi Biotec (Bergisch Gladbach, Germany) and counted using precision counting beads (Biolegend) on a CytoflexS flow cytometer (BeckmanCoulter). Data was analyzed using CytExpert (Version 2.4). T cells were gated as CD3^+ cells, T cell subsets were gated as CD4^+ (CD3^+, CD4^+), CD8^+ (CD3^+, CD8^+), memory CD4^+ (CD3^+, CD4^+, CD45RO^+), memory CD8^+ (CD3^+, CD8^+, CD45RO^+) and Th1 cells (CD3^+, CD4^+, CXCR3^+, CCR6^–).
(§2) Data were analyzed using GraphPad Prism software. EC50 values were calculated by three-parameter nonlinear regression analysis. For this, the data points were normalized to the number of migrated cells in untreated (buffer) control samples (100%), and the regression was fitted with the top constraint to 100 and the slope fixed to 1. Statistical significance is indicated in graphs as n.s. not significant, * p < 0.05; ** p < 0.01; *** p < 0.001. The statistical tests used are indicated in the respective figure captions.

[1] = test system: CD8+ lymphocytes (CD3+, CD8+); format: cell-based, human; settings: normalized to untreated control, mean ± SEM of 4-6 experiments
Description: as §1, §2

[2] = test system: memory CD4+ cells (CD3+, CD4+, CD45RO+); format: cell-based, human; settings: normalized to untreated control, mean ± SEM of 4-6 experiments
Description: as §1, §2

[3] = test system: memory CD8+ cells (CD3+, CD8+, CD45RO+); format: cell-based, human; settings: normalized to untreated control, mean ± SEM of 4-6 experiments
Description: as §1, §2

[4] = test system: CD4+ lymphocytes (CD3+, CD4+); format: cell-based, human; settings: normalized to untreated control, mean ± SEM of 4-6 experiments
Description: as §1, §2

[5] = Homo sapiens, Lymphocyte, PBMC preincubated with ligand for 1.5 h, then added onto EC monolayer, 4 h migration, mean ± SD, 3 or more experiments, read-out: EC50, inhibition of CD3+ cell migration

For `CCCC[C@@H]1NC(=O)[C@H](C(C)C)NC(=O)[C@H](CCCCN)NC(=O)[C@@H](NC(=O)[C@H](CCC(N)=O)NC(=O)[C@H](CCC(=O)O)NC(C)=O)CSSC[C@@H](C(=O)N[C@@H](CCC(=O)O)C(=O)N[C@@H](CCCCN)C(N)=O)NC(=O)[C@H](CC(N)=O)NC(=O)[C@H](CC(=O)O)NC(=O)[C@H](CC(C)C)NC(=O)[C@@H]2CSSC[C@H](NC1=O)C(=O)N[C@@H](Cc1ccc(O)cc1)C(=O)N[C@@H](C)C(=O)N[C@@H](CCC(N)=O)C(=O)NCC(=O)N[C@@H](C)C(=O)N[C@@H](CCC(=O)O)C(=O)N[C@@H](CC(C)C)C(=O)N[C@@H](CO)C(=O)N1CCC[C@H]1C(=O)N[C@@H](CCC(=O)O)C(=O)N[C@@H](CC(C)C)C(=O)N[C@@H](CC(C)C)C(=O)N[C@@H](CCCNC(=N)N)C(=O)N[C@@H](CCCNC(=N)N)C(=O)N2` [VhTI-pep 1] (Ac-EQCKV[Nle]CYAQGAELSPELLRRCLDNCEK-NH2; disulfide 3-26, 7-22), the half-life (Serum stability assay) was greater than 48 h, the “% Inhibition of cell migration compared to control, CD3+” value (from here on “% Inhibition of cell migration … CD3+”) (CD3+ lymphocytes; 0.1 μM) was 25.6 ± 6.4% and the “% Inhibition of cell migration … CD3+” value (CD3+ lymphocytes; 1 μM) was 33.4 ± 8.5%. The “% Inhibition of cell migration compared to control, CD8+” value (“% Inhibition … to control, CD8+” below) ([1]; 0.1 μM) was 34.6 ± 8.0%, the “% Inhibition … to control, CD8+” value ([1]; 1 μM) was 38.4 ± 2.4% and the “% Inhibition of cell migration compared to control, Memory CD4+” value (shortened to “% Inhibition of cell migration … Memory CD4+”) ([2]; 0.1 μM) was 15.1 ± 14.2%. The “% Inhibition of cell migration … Memory CD4+” value ([2]; 1 μM) was 39.5 ± 11.6%, the “% Inhibition of cell migration compared to control, Memory CD8+” value (“% Inhibition of cell migration … Memory CD8+” below) ([3]; 0.1 μM) was 21.2 ± 3.1% and the “% Inhibition of cell migration … Memory CD8+” value ([3]; 1 μM) was 29.6 ± 6.7%. The “% Inhibition of cell migration compared to control, CD4+” value (from here on “% Inhibition … to control, CD4+”) ([4]; 0.1 μM) was 23.5 ± 9.7% and the “% Inhibition … to control, CD4+” value ([4]; 1 μM) was 30.3 ± 14.7%.
In the case of `CC(=O)N[C@@H](CCC(=O)O)C(=O)N[C@@H](CCC(N)=O)C(=O)N[C@H]1CSSC[C@@H](C(=O)N[C@@H](CCC(=O)O)C(=O)N[C@@H](CCCCN)C(N)=O)NC(=O)[C@H](CC(N)=O)NC(=O)[C@H](CC(=O)O)NC(=O)[C@H](CC(C)C)NC(=O)[C@@H]2CSSC[C@H](NC(=O)[C@H]([C@@H](C)O)NC(=O)[C@H](C(C)C)NC(=O)[C@H](CO)NC1=O)C(=O)N[C@@H](CCC(=O)O)C(=O)N[C@@H](CCC(N)=O)C(=O)NCC(=O)N[C@@H](C)C(=O)N[C@@H](CCC(=O)O)C(=O)N[C@@H](CC(C)C)C(=O)N1CCC[C@H]1C(=O)N[C@@H](CO)C(=O)N[C@@H](CC(N)=O)C(=O)N[C@@H](CCC(=O)O)C(=O)N[C@@H](CCC(=O)O)C(=O)N[C@@H](CCCNC(=N)N)C(=O)N2` [VhTI-pep 6] (Ac-EQCSVTCEQGAELPSNEERCLDNCEK-NH2; disulfide 3-24, 7-20), the half-life (Serum stability assay) is reported as 25.8 ± 9.7 h, the “% Inhibition of cell migration … CD3+” value (CD3+ lymphocytes; 0.1 μM) is reported as 27.0 ± 9.7% and the “% Inhibition of cell migration … CD3+” value (CD3+ lymphocytes; 1 μM) is reported as 14.9 ± 11.6%. The “% Inhibition … to control, CD8+” value ([1]; 0.1 μM) was 28.0 ± 8.2%, the “% Inhibition … to control, CD8+” value ([1]; 1 μM) was 1.6 ± 7.8% and the “% Inhibition of cell migration … Memory CD4+” value ([2]; 0.1 μM) was 24.6 ± 11.6%. For the same molecule, the “% Inhibition of cell migration … Memory CD4+” value ([2]; 1 μM) was 14.7 ± 7.6%, the “% Inhibition of cell migration … Memory CD8+” value ([3]; 0.1 μM) was 23.2 ± 4.3% and the “% Inhibition of cell migration … Memory CD8+” value ([3]; 1 μM) was 0.6 ± 6.1%. The “% Inhibition … to control, CD4+” value ([4]; 0.1 μM) was 19.5 ± 9.9% and the “% Inhibition … to control, CD4+” value ([4]; 1 μM) was 14.6 ± 8.7%.
`CCCCCCCCCCCCC/C=C/[C@@H](O)[C@@H](N)COP(=O)(O)O` [Sphingosine-1-phosphate, reference compound] gave an EC50 (CD3+ lymphocytes; [5]) of 54.6 ± 49.1 nM.
Molecule `CS(=O)(=O)c1cccc(C[C@H](NC(=O)c2c(Cl)cc3c(c2Cl)CCN(C(=O)c2ccc4ccoc4c2)C3)C(=O)O)c1` [lifitegrast, reference compound] has an EC50 (CD3+ lymphocytes; [5]) of 2.2 ± 3.6 nM.
With `CCCC[C@@H]1NC(=O)[C@H](C(C)C)NC(=O)[C@H](CCCCN)NC(=O)[C@@H](NC(=O)[C@H](CCC(N)=O)NC(=O)[C@H](CCC(=O)O)NC(C)=O)CSSC[C@@H](C(=O)N[C@@H](CCC(=O)O)C(=O)N[C@@H](CCCCN)C(N)=O)NC(=O)[C@H](CC(N)=O)NC(=O)[C@H](CC(=O)O)NC(=O)[C@H](CC(C)C)NC(=O)[C@@H]2CSSC[C@H](NC1=O)C(=O)N[C@@H](Cc1ccc(O)cc1)C(=O)N[C@@H](CCC(=O)O)C(=O)N[C@@H](CCC(N)=O)C(=O)NCC(=O)N[C@@H](C)C(=O)N[C@@H](CCC(=O)O)C(=O)N[C@@H](CC(C)C)C(=O)N1CCC[C@H]1C(=O)N[C@@H](CCC(=O)O)C(=O)N[C@@H](CC(C)C)C(=O)N[C@@H](CC(C)C)C(=O)N[C@@H](CCCNC(=N)N)C(=O)N[C@@H](CCCNC(=N)N)C(=O)N2` [VhTI-pep 3] (Ac-EQCKV[Nle]CYEQGAELPELLRRCLDNCEK-NH2; disulfide 3-25, 7-21) the half-life (Serum stability assay) was greater than 48 h, the “% Inhibition of cell migration … CD3+” value (CD3+ lymphocytes; 0.1 μM) was 1.5 ± 7.6% and the “% Inhibition of cell migration … CD3+” value (CD3+ lymphocytes; 1 μM) was 4.6 ± 10.6%. For the same molecule, the “% Inhibition … to control, CD8+” value ([1]; 0.1 μM) was 10.4 ± 11.2%, the “% Inhibition … to control, CD8+” value ([1]; 1 μM) was 14.0 ± 13.8% and the “% Inhibition of cell migration … Memory CD4+” value ([2]; 0.1 μM) was “–8.7 ± 3.4%”. The “% Inhibition of cell migration … Memory CD4+” value ([2]; 1 μM) was 11.7 ± 10.6%, the “% Inhibition of cell migration … Memory CD8+” value ([3]; 0.1 μM) was 3.9 ± 9.7% and the “% Inhibition of cell migration … Memory CD8+” value ([3]; 1 μM) was 3.0 ± 11.6%. For the same molecule, the “% Inhibition … to control, CD4+” value ([4]; 0.1 μM) was “–8.9 ± 18.1%” and the “% Inhibition … to control, CD4+” value ([4]; 1 μM) was 10.8 ± 10.1%.
For “SVTEQGAELSNEER [Pepitem, reference compound]”, the “Serum t 1/2” value (Serum stability assay) was 3.1 ± 0.5 h, the half-life (Serum stability assay) was roughly 3 h and the EC50 (CD3+ lymphocytes; 4 h) was 6 ± 6.4 nM.
